Measurements: publication PMC12123601, “Light-Induced, Lysine-Targeting Irreversible Covalent Inhibition of the Human Oxygen Sensing Hydroxylase Factor Inhibiting HIF (FIH)” (Journal of the American Chemical Society, 2025)
Where two headings read alike, the source gives them in different places.

What was measured:
[1] = system: HIF-1α and HIF-2α; assay: Western blotting of HIF-1α and HIF-2α protein levels in Hep3B cells; type: cell-based
Description: To investigate potential cellular target engagement of NBA-ZG-2291 with FIH, we performed a time-dependent cellular thermal shift assay (CETSA) using Hep3B cells. The results imply that, after 30 min of light activation (365 nm, 16 W), NBA-ZG-2291 effectively stabilizes FIH with a ΔT m of about 9 °C after incubation for 12–48 h (Figure A), indicating sustained engagement with FIH. […] We also performed Western blotting to examine the protein levels of both HIF-1α and HIF-2α in control and NBA-ZG-2291-treated Hep3B cells.

[2] = molecular target: T1, FIH^K106A (Homo sapiens, UniProt Q9NWT6, K106A); assay: Affinity-based fluorescence polarization (FP) assay with the FIH K106A variant, without and with irradiation; type: binding; settings: for Ki: read-out: Binding affinity to FIH^K106A: Ki
T1 construct: encoding for full-length FIH with an N-terminal His6 tag or for FIH (K106A) with an N-terminal His6 tag; His6 (N); host or cells: Escherichia coli BL21
T1 sequence (Q9NWT6 whole entry K106A): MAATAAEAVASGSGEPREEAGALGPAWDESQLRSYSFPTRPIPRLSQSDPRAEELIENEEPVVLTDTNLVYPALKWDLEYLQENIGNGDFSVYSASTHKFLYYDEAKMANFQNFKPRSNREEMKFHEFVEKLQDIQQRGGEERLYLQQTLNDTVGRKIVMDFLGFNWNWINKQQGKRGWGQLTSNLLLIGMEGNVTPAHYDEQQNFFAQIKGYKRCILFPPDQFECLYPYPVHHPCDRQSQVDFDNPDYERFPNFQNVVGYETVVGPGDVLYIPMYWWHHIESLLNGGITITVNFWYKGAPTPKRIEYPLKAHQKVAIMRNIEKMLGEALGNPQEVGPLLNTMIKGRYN
Description: 4 (A) Light-induced click conjugation between NBA-ZG-2291 and FIH protein. (B) Light-induced binding affinity of NBA-ZG-2291 to FIH^ WT . (C) Light-induced binding affinity of NBA-ZG-2291 to FIH^ K106A . […] TEXT PRINTED IN THE PICTURE: (B) NBA-ZG-2291: Binding affinity to FIH^WT: Ki (nM): 414 ± 14 (Irradtion time (min): 0); Binding affinity to FIH^WT: Ki (nM): 74.1 ± 1.6 (Irradtion time (min): 15); Binding affinity to FIH^WT: Ki (nM): 46.7 ± 1.4 (Irradtion time (min): 30); Binding affinity to FIH^WT: Ki (nM): 33.2 ± 0.6 (Irradtion time (min): 60); Binding affinity to FIH^WT: Ki (nM): 30.2 ± 2.0 (Irradtion time (min): 90); Binding affinity to FIH^WT: Ki (nM): 32.1 ± 0.7 (Irradtion time (min): 120) | (B) Neg-1: Binding affinity to FIH^WT: Ki (nM): 423 ± 7 (Irradtion time (min): 0); Binding affinity to FIH^WT: Ki (nM): 408 ± 30 (Irradtion time (min): 15); Binding affinity to FIH^WT: Ki (nM): 459 ± 32 (Irradtion time (min): 30); Binding affinity to FIH^WT: Ki (nM): 427 ± 17 (Irradtion time (min): 60); Binding affinity to FIH^WT: Ki (nM): 396 ± 29 (Irradtion time (min): 90); Binding affinity to FIH^WT: Ki (nM): 428 ± 15 (Irradtion time (min): 120) | (B) Neg-2: Binding affinity to FIH^WT: Ki (nM): 742 ± 65 (Irradtion time (min): 0); Binding affinity to FIH^WT: Ki (nM): 799 ± 69 (Irradtion time (min): 15); Binding affinity to FIH^WT: Ki (nM): 758 ± 13 (Irradtion time (min): 30); Binding affinity to FIH^WT: Ki (nM): 744 ± 30 (Irradtion time (min): 60); Binding affinity to FIH^WT: Ki (nM): 788 ± 36 (Irradtion time (min): 90); Binding affinity to FIH^WT: Ki (nM): 786 ± 35 (Irradtion time (min): 120) | (C) NBA-ZG-2291: Binding affinity to FIH^K106A: Ki (nM): 442 ± 12 (Irradtion time (min): 0); Binding affinity to FIH^K106A: Ki (nM): 427 ± 22 (Irradtion time (min): 15); Binding affinity to FIH^K106A: Ki (nM): 426 ± 7 (Irradtion time (min): 30); Binding affinity to FIH^K106A: Ki (nM): 420 ± 11 (Irradtion time (min): 60); Binding affinity to FIH^K106A: Ki (nM): 418 ± 5 (Irradtion time (min): 90); Binding affinity to FIH^K106A: Ki (nM): 424 ± 12 (Irradtion time (min): 120) | (C) Neg-1: Binding affinity to FIH^K106A: Ki (nM): 271 ± 14 (Irradtion time (min): 0); Binding affinity to FIH^K106A: Ki (nM): 275 ± 15 (Irradtion time (min): 15); Binding affinity to FIH^K106A: Ki (nM): 268 ± 25 (Irradtion time (min): 30); Binding affinity to FIH^K106A: Ki (nM): 266 ± 22 (Irradtion time (min): 60); Binding affinity to FIH^K106A: Ki (nM): 264 ± 41 (Irradtion time (min): 90); Binding affinity to FIH^K106A: Ki (nM): 270 ± 3 (Irradtion time (min): 120) | (C) Neg-2: Binding affinity to FIH^K106A: Ki (nM): 567 ± 37 (Irradtion time (min): 0); Binding affinity to FIH^K106A: Ki (nM): 548 ± 61 (Irradtion time (min): 15); Binding affinity to FIH^K106A: Ki (nM): 521 ± 50 (Irradtion time (min): 30); Binding affinity to FIH^K106A: Ki (nM): 627 ± 17 (Irradtion time (min): 60); Binding affinity to FIH^K106A: Ki (nM): 565 ± 10 (Irradtion time (min): 90); Binding affinity to FIH^K106A: Ki (nM): 552 ± 38 (Irradtion time (min): 120) […]
To further verify the covalent binding between NBA-ZG-2291 and Lys106, the FIH^ K106A variant was produced and purified.
3. Experimental procedures
3.1 Fluorescence polarization (FP) assays1 with FIHWT and FIHK106A pET28a vectors encoding for full-length FIH with an N-terminal His6 tag or for FIH (K106A) with an N-terminal His6 tag were purchased from Nanjing Zoonbio Biotechnology. Both the FIHWT and FIHK106A protein were expressed from the respective plasmid in Escherichia coli BL21 at 20 °C for 16 h. E. coli cells were lysed and the lysate were clarified by centrifugation. His6-tagged FIHWT or FIHK106A was purified on a HisTrap affinity column (GE Healthcare) by elution with an imidazole gradient. The final purified proteins were stored in PBS buffer.
FP assays were carried out using 384 -well plates (#3575, Corning); the polarization signal was measured using a SPARK Multi-Mode Microplate Reader (Tecan). […]

`O=C(O)CNC(=O)c1ncc(-c2cc(-c3ccc(CO)c([N+](=O)[O-])c3)no2)cc1O` [NBA-ZG-2291] was tested, and the “Protein levels of HIF-1α and HIF-2α” value [1] was “did not significantly alter the levels of either HIF-1α or HIF-2α”, the “Effect of irradiation time on binding affinity for the FIH^K106A variant” value ([2]; FP assay, varying irradiation times) was “remained unchanged” and the Ki ([2]; irradiation time 0 min) was 442 ± 12 nM. It also gave a Ki ([2]; irradiation time 15 min) of 427 ± 22 nM, a Ki ([2]; irradiation time 30 min) of 426 ± 7 nM and a Ki ([2]; irradiation time 60 min) of 420 ± 11 nM. It also gave a Ki ([2]; irradiation time 90 min) of 418 ± 5 nM and a Ki ([2]; irradiation time 120 min) of 424 ± 12 nM.
